Measurements taken from ChEMBL document CHEMBL1201862, “PubChem BioAssay data set” (2004).
Active and inactive are the calls of the source.

Tests used:
[1] = Dose-response inhibition of insulin secretion in a rat insulinoma line at 5 mM glucose (AID 1117331); format: functional, cell-based; settings: INS-1E
[2] = inhibitors of non-replicating M. tuberculosis, dose response, luciferase, dry powder (AID 651619); format: functional; settings: Mycobacterium tuberculosis
[3] = growth inhibition of replicating M. tuberculosis, dose response, counter-screen, dry powder, IC90 (AID 651617); format: functional; settings: Mycobacterium tuberculosis
[4] = inhibitors of non-replicating M. tuberculosis, dose response, luciferase, dry powder (AID 651620); format: functional; settings: Mycobacterium tuberculosis
[5] = biological target: NAD-dependent protein deacylase sirtuin-5, mitochondrial (Homo sapiens, UniProt Q9NXA8); assay: SIRT5 desuccinylase inhibitors, dose response, biochemical, fluorescence imaging, cherry-pick, set 5 (AID 720591);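 also: desuccinylation of succinyl peptide AMC substrate read as fluorescence after trypsin release; potency of inhibitors that lower fluorescence and may act on trypsin instead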
[6] = system: Vero; assay: Vero cell cytotoxicity, cytotoxicity control for flavivirus capping enzyme inhibitors (AID 588742); format: functional; settings: Chlorocebus sabaeus
[7] = THP-1 cell cytotoxicity, dose response, cytotoxicity control for Vif-APOBEC3G degradation inhibitor project, THP-1 cells (AID 1117359); format: functional; settings: Human immunodeficiency virus 1, THP-1
[8] = biological target: Glutathione-S-transferase (Schistosoma japonicum, UniProt Q26513); assay: biotin-GST/anti-GST TR-FRET signal inhibitors, dose response, artefact control for Vif-APOBEC3G degradation inhibitor project, biochemical (AID 1117362); format: functional
[9] = A375 melanoma cell cytotoxicity, dose response, counter-screen for MITF inhibitor project, CellTiter-Glo luminescence, dry powder, set 2 (AID 624489); format: functional, cell-based;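 also: actives are compounds lowering A375 viability meaning general cytotoxicity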
[10] = A375 melanoma cell viability loss, dose response, counter-screen for MITF inhibitor project, CellTiter-Glo luminescence, dry powder, set 4 (AID 624364); format: functional, cell-based; settings: A-375;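 also: A375 melanoma cells are MITF independent so this is a counter screen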
[11] = inhibitors of HIV Env-driven cell fusion, dose response, cherry-pick (AID 652057); format: functional, cell-based
[12] = inhibitors of clade B AD8 Env fusion, dose response, cell-based, cherry-pick (AID 652062); format: functional;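 also: luciferase signal from cell-cell fusion driven by HIV-1 clade B AD8 Env; potency is for inhibitors of fusion seen as a drop in luminescence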
[13] = HIV Env cell-cell fusion inhibitors, dose response, HIV entry, plate reader, dry powder (AID 687023); format: functional, cell-based
[14] = HEK293 Cytotoxicity Assay Measured in Cell-Based System Using Plate Reader - 7071-01_Inhibitor_Dose_CherryPick_Activity_Set2.; format: functional
[15] = system: HEK293; assay: HEK293T cell cytotoxicity, dose response, cytotoxicity control, ATP luminescence, cherry-pick samples (AID 687005); format: functional, cell-based; settings: Homo sapiens;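 also: cells exposed to compound for 48 hours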
[16] = TB:CFU starved Measured in Microorganism System Using Imaging - 7108-06_Inhibitor_Dose_DryPowder_Activity_Set2.; format: functional

Chain of NAD-dependent protein deacylase sirtuin-5, mitochondrial (Q9NXA8 whole entry): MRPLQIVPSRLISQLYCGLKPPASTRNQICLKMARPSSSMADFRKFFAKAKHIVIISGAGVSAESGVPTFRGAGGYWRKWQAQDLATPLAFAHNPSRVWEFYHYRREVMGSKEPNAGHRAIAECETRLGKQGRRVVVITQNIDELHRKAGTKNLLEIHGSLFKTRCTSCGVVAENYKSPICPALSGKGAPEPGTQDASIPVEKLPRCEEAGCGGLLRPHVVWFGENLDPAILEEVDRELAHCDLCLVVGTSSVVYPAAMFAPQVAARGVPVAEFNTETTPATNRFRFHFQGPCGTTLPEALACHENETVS
Chain of Glutathione-S-transferase (Q26513 whole entry): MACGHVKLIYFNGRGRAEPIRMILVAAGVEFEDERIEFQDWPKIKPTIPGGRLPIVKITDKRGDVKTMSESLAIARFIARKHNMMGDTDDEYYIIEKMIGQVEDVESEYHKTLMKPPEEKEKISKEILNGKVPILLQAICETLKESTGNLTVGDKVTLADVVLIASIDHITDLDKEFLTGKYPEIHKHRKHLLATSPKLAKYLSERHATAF

In the case of Cc1cc(-n2nc3ccc(Cl)cc3n2)c(O)c(C(C)(C)C)c1 [BUMETRIZOLE], the IC50 [1] is reported as > 33.3 µM (inactive).
With COCCSc1nnc(-c2ccccc2)o1 the IC90 [2] was 4 µM (active), the IC90 [3] was 16 µM (active) and the IC90 [4] was 4 µM (active).
With CN(C)CCN(Cc1cccs1)S(=O)(=O)c1csc(C(N)=O)c1 the AC50 [5] was > 30 µM (inactive).
With CC[n+]1c(/C=C2/C=C(C)CC(C)(C)C2)sc2ccc(OC)cc21 the CC50 [6] was > 40 µM (active), the CC50 [7] was 4.13 µM (active) and the IC50 [8] was > 100 µM (active).
With O=C1C(Nc2ccccc2)=C(N2CCOCC2)C(=O)c2ccccc21 the AC50 [9] was 65.7 µM (active), the AC50 ([9]; A-375) was > 70 µM (inactive) and the AC50 [10] was > 70 µM (inactive).
In the case of C[C@H]1CCCCO[C@@H](CN(C)Cc2ccncc2)[C@@H](C)CN([C@@H](C)CO)C(=O)c2cc(NC(=O)Nc3ccccc3)ccc2O1, the AC50 [11] is reported as 0.764 µM (active), the AC50 [12] is reported as 32.9 µM (active) and the AC50 [13] is reported as 10.7 µM (active). The AC50 [14] was 33.2 µM (active) and the AC50 [15] was 33.2 µM (active).
Compound CCn1c(NC(=O)c2cccnc2O)nc2ccccc21 has an AbsAC90 [16] of 89.33 µM.
